Results on 14 molecules are retold here after patent US20190071416A1, “COMPOUNDS FOR TREATMENT OF CANCER AND EPIGENETICS” (Agency For Science, Technology and Research, priority 2015, published 2019).

pIC50: −log10 of the molar value.

The assay deals with T1, SMYD3 (Homo sapiens, UniProt Q9H7B4).
T1 sequence (Q9H7B4 1-428): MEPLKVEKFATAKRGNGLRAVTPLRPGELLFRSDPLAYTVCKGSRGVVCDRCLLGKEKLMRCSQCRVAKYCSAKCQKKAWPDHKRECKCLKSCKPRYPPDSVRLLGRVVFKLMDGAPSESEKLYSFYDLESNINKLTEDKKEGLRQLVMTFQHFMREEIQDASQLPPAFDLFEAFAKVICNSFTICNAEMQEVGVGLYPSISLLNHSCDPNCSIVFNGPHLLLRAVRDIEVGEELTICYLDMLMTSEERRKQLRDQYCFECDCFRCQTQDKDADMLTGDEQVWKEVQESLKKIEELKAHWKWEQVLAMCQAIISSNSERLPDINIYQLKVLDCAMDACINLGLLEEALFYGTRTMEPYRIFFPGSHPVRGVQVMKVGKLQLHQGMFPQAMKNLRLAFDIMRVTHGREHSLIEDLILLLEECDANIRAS
Description: SMYD3 biochemical assay (MTase-Glo, MAP3K2 peptide substrate). Conditions: Table 3; MTase assay, MAP3K2 peptide substrate; read-out: IC50. A digest of the protocol:
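Methylation of MAP3K2 peptide (10 µM final) with SAM (1.0 µM final) by SMYD3, 30 min at room temperature. SAH formed was enzymatically converted to ATP and detected as luminescence with MTase-Glo reagents; IC50 by non-linear regression.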
For the molecule `CCCOC(=O)N1CCN(C(=O)c2ccc3c(Cl)cc(-c4ccn(C)c4)nc3c2)CC1` [B130, Propyl 4-(4-chloro-2-(1-methyl-1H-pyrrol-3-yl)quinoline-7-carbonyl)piperazine-1-carboxylate], the pIC50 is 7.64.

Regarding `CCCOC(=O)N1CCN(C(=O)c2ccc3c(Cl)cc(-c4ccnc(OC)c4)nc3c2)C[C@H]1C` [B131, Propyl (R)-4-(4-chloro-2-(2-methoxypyridin-4-yl)quinoline-7-carbonyl)-2-methylpiperazine-1-carboxylate], the pIC50 is 6.44.

On to `CCCOC(=O)N1CCN(C(=O)c2ccc3c(Cl)cc(-c4cnc5[nH]ccc5c4)nc3c2)C[C@H]1C` [B132, Propyl (R)-4-(4-chloro-2-(1H-pyrrolo[2,3-b]pyridin-5-yl)quinoline-7-carbonyl)-2-methylpiperazine-1-carboxylate], for which the pIC50 was 6.77.

Turning to `CCCOC(=O)N1CCN(C(=O)c2ccc3c(Cl)cc(C4(C)CC4)nc3c2)CC1` [B133, Propyl 4-(4-chloro-2-(1-methylcyclopropyl)quinoline-7-carbonyl)piperazine-1-carboxylate], the pIC50 was 5.85.

As for `CCCOC(=O)N1CCN(C(=O)c2ccc3c(Cl)cc(-c4ccc(-n5cccn5)cc4)nc3c2)CC1` [B134, Propyl 4-(2-(4-(1H-pyrazol-1-yl)phenyl)-4-chloroquinoline-7-carbonyl)piperazine-1-carboxylate], the negative logarithm of the IC50 (pIC50) was 6.22.

On to `CCCOC(=O)N1CCN(C(=O)c2ccc3c(Cl)cc(-c4ccc(-c5ccn[nH]5)cc4)nc3c2)CC1` [B135, Propyl 4-(2-(4-(1H-pyrazol-5-yl)phenyl)-4-chloroquinoline-7-carbonyl)piperazine-1-carboxylate], for which the pIC50 was 6.40.

As for `CCCOC(=O)N1CCN(C(=O)c2ccc3c(Cl)cc(-c4ccc(-c5cn[nH]c5)cc4)nc3c2)CC1` [B136, Propyl 4-(2-(4-(1H-pyrazol-4-yl)phenyl)-4-chloroquinoline-7-carbonyl)piperazine-1-carboxylate], the pIC50 is 7.42.

With `CCCOC(=O)N1CCN(C(=O)c2ccc3c(Cl)cc(-c4ccc(C(=O)O)c(C)c4)nc3c2)CC1` [B137, 4-(4-Chloro-7-(4-(propoxycarbonyl)piperazine-1-carbonyl)quinolin-2-yl)-2-methylbenzoic acid], the negative-log IC50 (pIC50) is 5.44.

As for `CCCOC(=O)N1CCN(C(=O)c2ccc3c(Cl)cc(-c4cc[nH]n4)nc3c2)CC1` [B138, Propyl 4-(4-chloro-2-(1H-pyrazol-5-yl)quinoline-7-carbonyl)piperazine-1-carboxylate], the pIC50 is 6.08.

On to `CCCOC(=O)N1CCN(C(=O)c2ccc3c(Cl)cc(-c4ccc5[nH]cnc5c4)nc3c2)CC1` [B139, Propyl 4-(2-(1H-benzo[d]imidazol-5-yl)-4-chloroquinoline-7-carbonyl)piperazine-1-carboxylate], for which the pIC50 is 7.47.

Take `CCCOC(=O)N1CCN(C(=O)c2ccc3c(Cl)cc(-c4ccc5c(ccn5C)c4)nc3c2)CC1` [B140, Propyl 4-(4-chloro-2-(1-methyl-1H-indo1-5-yl)quinoline-7-carbonyl)piperazine-1-carboxylate]: the negative-log IC50 (pIC50) is 6.46.

For the molecule `CCCOC(=O)N1CCN(C(=O)c2ccc3c(Cl)cc(-c4cccc5[nH]ncc45)nc3c2)CC1` [B141, Propyl 4-(4-chloro-2-(1H-indazol-4-yl)quinoline-7-carbonyl)piperazine-1-carboxylate], the pIC50 was 6.20.

Turning to `CCCOC(=O)N1CCN(C(=O)c2ccc3c(Cl)cc(-c4cccc(CO)c4)nc3c2)C[C@H]1C` [B142, Propyl (R)-4-(4-chloro-2-(3-(hydroxymethyl)phenyl)quinoline-7-carbonyl)-2-methylpiperazine-1-carboxylate], the pIC50 was 7.26.

Consider `CCCOC(=O)N1CCN(C(=O)c2ccc3c(Cl)cc(-c4cccc(O)c4)nc3c2)CC1` [B143, Propyl 4-(4-chloro-2-(3-hydroxyphenyl)quinoline-7-carbonyl)piperazine-1-carboxylate], for which the pIC50 was 7.80.
